Source: US20240150303A1, “DIAMINOTRIAZINE COMPOUNDS” (BASF SE, priority 2021, published 2024)
Several values for one entry are separate records, joined by “and”; a condition that tells them apart may be missing. Equal values may be shown once.

Assays:
Test in all cases: greenhouse pre-emergence herbicidal test
Type in all cases: in vivo
Amaranthus retroflexus = test system: Amaranthus retroflexus
Source text: (§1) The seeds of the test plants were sown separately for each species. For the pre-emergence treatment, the active ingredients, which had been suspended or emulsified in water, were applied directly after sowing by means of finely distributing nozzles. The containers were irrigated gently to promote germination and growth and subsequently covered with transparent plastic hoods until the plants had rooted. This cover caused uniform germination of the test plants, unless this had been impaired by the active ingredients. […] The test period extended over 2 to 4 weeks. During this time, the plants were tended, and their response to the individual treatments was evaluated. Evaluation was carried out using a scale from 0 to 100. 100 means no emergence of the plants, or complete destruction of at least the aerial moieties, and 0 means no damage, or normal course of growth. A moderate herbicidal activity is given at values of at least 60, a good herbicidal activity is given at values of at least 70, and a very good herbicidal activity is given at values of at least 85. The plants used in the greenhouse experiments were of the following species: [table]

Echinocloa crus-galli = test system: Echinocloa crus-galli
Source text: as §1

Setaria faberi = test system: Setaria faberi
Source text: as §1

Abutilon theophrasti = test system: Abutilon theophrasti
Source text: The culture containers used were plastic flowerpots containing loamy sand with approximately 3.0% of humus as the substrate. The seeds of the test plants were sown separately for each species.
For the pre-emergence treatment, the active ingredients, which had been suspended or emulsified in water, were applied directly after sowing by means of finely distributing nozzles.
The containers were irrigated gently to promote germination and growth and subsequently covered with transparent plastic hoods until the plants had rooted. This cover caused uniform germination of the test plants, unless this had been impaired by the active ingredients.
Depending on the species, the plants were kept at 10-25° C. or 20-35° C., respectively.
The test period extended over 2 to 4 weeks. During this time, the plants were tended, and their response to the individual treatments was evaluated.
Evaluation was carried out using a scale from 0 to 100. 100 means no emergence of the plants, or complete destruction of at least the aerial moieties, and 0 means no damage, or normal course of growth. A moderate herbicidal activity is given at values of at least 60, a good herbicidal activity is given at values of at least 70, and a very good herbicidal activity is given at values of at least 85.
The plants used in the greenhouse experiments were of the following species: […]

Measured: herbicidal activity

CC(F)c1nc(N)nc(Nc2c(Cl)cccc2OC(F)F)n1 (racemic) [Example 95]
100%: Amaranthus retroflexus; 62 g/ha | Echinocloa crus-galli; 62 g/ha | Setaria faberi; 62 g/ha | Abutilon theophrasti; 62 g/ha

COc1c(Br)cc(Cl)c(C)c1Nc1nc(N)nc(C(C)F)n1 (racemic) [Example 96]
75%: Setaria faberi; 62 g/ha
70%: Echinocloa crus-galli; 62 g/ha

COc1c(Br)cc(Cl)c(C)c1Nc1nc(N)nc(C(C)(F)CBr)n1 (racemic) [Example 99]
100%: Amaranthus retroflexus; 62 g/ha | Setaria faberi; 62 g/ha | Abutilon theophrasti; 62 g/ha

Cc1c(Br)cc(F)c(OCc2ccccc2)c1Nc1nc(N)nc(C(C)(C)F)n1 [Example 6]
85%: Echinocloa crus-galli; 250 g/ha
100%: Echinocloa crus-galli; 125 g/ha | Setaria faberi; 125 g/ha | Setaria faberi; 250 g/ha | Abutilon theophrasti; 125 g/ha | Abutilon theophrasti; 250 g/ha

COc1c(F)ccc(C)c1Nc1nc(N)nc(C(C)(C)F)n1 [Example 16]
100%: Amaranthus retroflexus; 62 g/ha | Amaranthus retroflexus; 250 g/ha | Echinocloa crus-galli; 62 g/ha | Echinocloa crus-galli; 250 g/ha | Abutilon theophrasti; 62 g/ha | Abutilon theophrasti; 250 g/ha

COc1c(C)ccc(C)c1Nc1nc(N)nc(C(C)(C)OC)n1 [Example 17]
100%: Amaranthus retroflexus; 250 g/ha | Echinocloa crus-galli; 250 g/ha | Abutilon theophrasti; 250 g/ha

COc1c(C)ccc(C)c1Nc1nc(N)nc(C(C)F)n1 (centres unmarked) [Example 18]
100%: Amaranthus retroflexus; 62.5 g/ha | Amaranthus retroflexus; 250 g/ha | Echinocloa crus-galli; 62.5 g/ha | Echinocloa crus-galli; 250 g/ha | Abutilon theophrasti; 62.5 g/ha | Abutilon theophrasti; 250 g/ha

C#CCOc1c(Br)cc(F)c(C)c1Nc1nc(N)nc(C(C)(C)F)n1 [Example 22]
100%: Amaranthus retroflexus; 62 g/ha | Echinocloa crus-galli; 62 g/ha | Setaria faberi; 62 g/ha | Setaria faberi; 62.5 g/ha
85%: Amaranthus retroflexus; 62.5 g/ha | Echinocloa crus-galli; 62.5 g/ha

CCOc1c(Br)cc(F)c(C)c1Nc1nc(N)nc(C(C)(C)F)n1 [Example 23]
100%: Amaranthus retroflexus; 62 g/ha | Amaranthus retroflexus; 62.5 g/ha | Echinocloa crus-galli; 62 g/ha | Echinocloa crus-galli; 62.5 g/ha | Setaria faberi; 62 g/ha | Setaria faberi; 62.5 g/ha

CC#CCOc1c(F)cc(F)c(Cl)c1Nc1nc(N)nc(C(C)(C)F)n1 [Example 25]
100%: Amaranthus retroflexus; 62 g/ha | Amaranthus retroflexus; 250 g/ha | Echinocloa crus-galli; 62 g/ha | Echinocloa crus-galli; 250 g/ha | Setaria faberi; 62 g/ha | Setaria faberi; 250 g/ha

CCC#CCOc1c(F)cc(F)c(Cl)c1Nc1nc(N)nc(C(C)(C)F)n1 [Example 26]
100%: Amaranthus retroflexus; 62 g/ha | Amaranthus retroflexus; 250 g/ha | Echinocloa crus-galli; 62 g/ha | Echinocloa crus-galli; 250 g/ha | Setaria faberi; 62 g/ha | Setaria faberi; 250 g/ha

CC(C)(F)c1nc(N)nc(Nc2c(Cl)c(F)cc(F)c2OCC#CC2CC2)n1 [Example 27]
100%: Amaranthus retroflexus; 31 g/ha | Amaranthus retroflexus; 62 g/ha | Echinocloa crus-galli; 62 g/ha | Setaria faberi; 31 g/ha | Setaria faberi; 62 g/ha

C#CCOc1c(F)cc(F)c(Cl)c1Nc1nc(N)nc(C(C)(C)F)n1 [Example 28]
100%: Amaranthus retroflexus; 62 g/ha | Amaranthus retroflexus; 62.5 g/ha | Echinocloa crus-galli; 62 g/ha | Echinocloa crus-galli; 62.5 g/ha | Setaria faberi; 62 g/ha | Setaria faberi; 62.5 g/ha

COc1c(Br)cc(F)c(Cl)c1Nc1nc(N)nc(C(C)(C)F)n1 [Example 29]
100%: Amaranthus retroflexus; 31 g/ha | Amaranthus retroflexus; 62 g/ha | Setaria faberi; 31 g/ha | Setaria faberi; 62 g/ha | Abutilon theophrasti; 31 g/ha | Abutilon theophrasti; 62 g/ha

COc1c(Cl)cc(Cl)c(C)c1Nc1nc(N)nc(C(C)(C)F)n1 [Example 34]
100%: Amaranthus retroflexus; 62.5 g/ha | Echinocloa crus-galli; 62.5 g/ha | Abutilon theophrasti; 62.5 g/ha

COc1c(Br)cc(F)c(Cl)c1Nc1nc(N)nc(C2(F)CC2)n1 [Example 42]
100%: Amaranthus retroflexus; 31 g/ha | Echinocloa crus-galli; 31 g/ha | Setaria faberi; 31 g/ha

COc1c(F)ccc(Cl)c1Nc1nc(N)nc(C(C)(C)F)n1 [Example 49]
100%: Amaranthus retroflexus; 62 g/ha | Amaranthus retroflexus; 62.5 g/ha | Echinocloa crus-galli; 62 g/ha | Echinocloa crus-galli; 62.5 g/ha | Abutilon theophrasti; 62 g/ha | Abutilon theophrasti; 62.5 g/ha

C#CCOc1c(F)cc(C)c(Cl)c1Nc1nc(N)nc(C(C)(C)F)n1 [Example 56]
90%: Echinocloa crus-galli; 62.5 g/ha | Abutilon theophrasti; 62.5 g/ha
100%: Echinocloa crus-galli; 62 g/ha | Setaria faberi; 62 g/ha | Setaria faberi; 62.5 g/ha | Abutilon theophrasti; 62 g/ha

CC#CCOc1c(Cl)cc(C)c(Cl)c1Nc1nc(N)nc(C(C)(C)F)n1 [Example 65]
100%: Echinocloa crus-galli; 62 g/ha | Setaria faberi; 62 g/ha | Abutilon theophrasti; 62 g/ha

COc1c(Cl)ccc(Cl)c1Nc1nc(N)nc(C(C)(F)F)n1 [Example 72]
80% and 100%: Setaria faberi; 62 g/ha
100%: Amaranthus retroflexus; 62 g/ha | Echinocloa crus-galli; 62 g/ha

COc1c(Cl)cc(F)c(C)c1Nc1nc(N)nc(C2(F)CCCC2)n1 [Example 73]
100%: Amaranthus retroflexus; 62 g/ha | Echinocloa crus-galli; 62 g/ha | Setaria faberi; 62 g/ha

COc1c(Br)cc(F)c(C)c1Nc1nc(N)nc(C(C)F)n1 (centres unmarked) [Example 74]
100%: Amaranthus retroflexus; 62 g/ha | Echinocloa crus-galli; 62 g/ha | Setaria faberi; 62 g/ha

COc1c(Br)cc(F)c(C)c1Nc1nc(N)nc(C(C)(F)CCl)n1 (centres unmarked) [Example 75]
100%: Amaranthus retroflexus; 62 g/ha | Echinocloa crus-galli; 62 g/ha | Setaria faberi; 62 g/ha

COc1c(Br)cc(F)c(C)c1Nc1nc(N)nc(C(C)(F)CBr)n1 (centres unmarked) [Example 76]
100%: Amaranthus retroflexus; 62 g/ha | Echinocloa crus-galli; 62 g/ha | Setaria faberi; 62 g/ha

COc1c(Br)cc(F)c(C)c1Nc1nc(N)nc(C(C)(F)F)n1 [Example 77]
100%: Amaranthus retroflexus; 62 g/ha | Echinocloa crus-galli; 62 g/ha | Setaria faberi; 62 g/ha

COc1c(Br)cc(F)c(C)c1Nc1nc(N)nc(C2(F)CCCC2)n1 [Example 78]
100%: Amaranthus retroflexus; 62 g/ha | Echinocloa crus-galli; 62 g/ha | Setaria faberi; 62 g/ha

CCC(C)(F)c1nc(N)nc(Nc2c(C)c(F)cc(Br)c2OC)n1 (centres unmarked) [Example 79]
100%: Amaranthus retroflexus; 62 g/ha | Setaria faberi; 62 g/ha | Abutilon theophrasti; 62 g/ha

COc1c(Br)cc(F)c(C)c1Nc1nc(N)nc(C(C)(C)F)n1 [Example 80]
100%: Amaranthus retroflexus; 62 g/ha | Echinocloa crus-galli; 62 g/ha | Setaria faberi; 62 g/ha

CCC(C)(F)c1nc(N)nc(Nc2c(C)c(F)cc(Cl)c2OC)n1 (centres unmarked) [Example 81]
100%: Echinocloa crus-galli; 62 g/ha | Setaria faberi; 62 g/ha | Abutilon theophrasti; 62 g/ha

CC#CCOc1c(Br)cc(C)c(Cl)c1Nc1nc(N)nc(C(C)(C)F)n1 [Example 82]
100%: Amaranthus retroflexus; 62 g/ha | Echinocloa crus-galli; 62 g/ha | Setaria faberi; 62 g/ha

COc1c(Br)cc(C)c(Cl)c1Nc1nc(N)nc(C(C)(C)F)n1 [Example 83]
100%: Amaranthus retroflexus; 62 g/ha | Echinocloa crus-galli; 62 g/ha | Setaria faberi; 62 g/ha

COc1c(F)ccc(Cl)c1Nc1nc(N)nc(C(C)(F)F)n1 [Example 85]
98%: Setaria faberi; 62 g/ha
85%: Abutilon theophrasti; 62 g/ha
100%: Echinocloa crus-galli; 62 g/ha

COc1c(F)ccc(Cl)c1Nc1nc(N)nc(C(C)(F)CBr)n1 (centres unmarked) [Example 86]
100%: Amaranthus retroflexus; 62 g/ha | Echinocloa crus-galli; 62 g/ha | Setaria faberi; 62 g/ha

COc1c(F)ccc(Cl)c1Nc1nc(N)nc(C(C)(C)OC)n1 [Example 87]
100%: Amaranthus retroflexus; 62 g/ha | Echinocloa crus-galli; 62 g/ha | Setaria faberi; 62 g/ha

CC#CCOc1c(F)ccc(Cl)c1Nc1nc(N)nc(C(C)(F)F)n1 [Example 88]
100%: Amaranthus retroflexus; 62 g/ha | Echinocloa crus-galli; 62 g/ha | Setaria faberi; 62 g/ha

CC#CCOc1c(F)ccc(Cl)c1Nc1nc(N)nc(C(F)C(C)C)n1 (centres unmarked) [Example 89]
100%: Amaranthus retroflexus; 62 g/ha | Echinocloa crus-galli; 62 g/ha | Setaria faberi; 62 g/ha

CC#CCOc1c(F)ccc(Cl)c1Nc1nc(N)nc(C(C)(C)OC)n1 [Example 90]
100%: Amaranthus retroflexus; 62 g/ha | Echinocloa crus-galli; 62 g/ha | Setaria faberi; 62 g/ha

CC#CCOc1c(F)ccc(Cl)c1Nc1nc(N)nc(C(C)(F)CBr)n1 (centres unmarked) [Example 91]
100%: Amaranthus retroflexus; 62 g/ha | Echinocloa crus-galli; 62 g/ha | Setaria faberi; 62 g/ha

Nc1nc(Nc2c(Cl)cccc2OC(F)F)nc(C2(F)CCCC2)n1 [Example 94]
100%: Amaranthus retroflexus; 62 g/ha | Echinocloa crus-galli; 62 g/ha | Setaria faberi; 62 g/ha
